Test results as given in DBAASP.
In brackets after ≈: the same amount, converted by molar mass. Several values for one entry are separate records, joined by “and”; a condition that tells them apart may be missing. Equal entries are not always repeated. Each block holds one molecule with its values, some of them ahead of it.

How the values were obtained:
Experiment in all cases: ≥ marks a high value that may be exact or a test limit, other limits are often not marked, values filed in µg/mL are converted to µM
Enterococcus faecium = tested on: Enterococcus faecium
[1] = tested on: Enterococcus faecium ATCC 19434
[2] = tested on: Pseudomonas aeruginosa ATCC 27853
[3] = tested on: Candida albicans ATCC 90028
Pseudomonas aeruginosa = tested on: Pseudomonas aeruginosa
Escherichia coli = tested on: Escherichia coli
[4] = tested on: Escherichia coli O157:H7 ATCC 43895
[5] = tested on: Aspergillus flavus KCTC 1375
[6] = tested on: Staphylococcus aureus ATCC 25923
Staphylococcus aureus = tested on: Staphylococcus aureus
[7] = tested on: Malassezia furfur KCTC 7744
Corynebacterium xerosis = tested on: Corynebacterium xerosis
[8] = tested on: Staphylococcus haemolyticus
[9] = tested on: Staphylococcus aureus ATCC 43300
[10] = tested on: Streptococcus pyogenes ATCC 19615
Enterococcus faecalis = tested on: Enterococcus faecalis
[11] = tested on: Staphylococcus epidermidis
Salmonella typhimurium = tested on: Salmonella typhimurium
[12] = tested on: Escherichia coli ATCC 25922
[13] = tested on: Listeria monocytogenes NCTC 7973
Acinetobacter baumannii = tested on: Acinetobacter baumannii
[14] = tested on: Escherichia coli DH5alpha
[15] = tested on: Enterococcus faecalis ATCC 29212
Escherichia coli W160-37 = tested on: Escherichia coli W160-37
[16] = tested on: Saccharomyces cerevisiae PEP 4/3l
Klebsiella pneumoniae = tested on: Klebsiella pneumoniae
[17] = tested on: Staphylococcus aureus SAP 0017
[18] = tested on: Staphylococcus aureus ATCC 8530
Staphylococcus aureus 1 = tested on: Staphylococcus aureus 1
Pseudomonas aeruginosa 2 = tested on: Pseudomonas aeruginosa 2
Pseudomonas aeruginosa 5 = tested on: Pseudomonas aeruginosa 5
Escherichia coli O157 = tested on: Escherichia coli O157
Staphylococcus aureus 4 = tested on: Staphylococcus aureus 4
Pseudomonas aeruginosa 1 = tested on: Pseudomonas aeruginosa 1
[19] = tested on: Pseudomonas syringae pv. syringae EPS 94
Escherichia coli 207 = tested on: Escherichia coli 207
Candida tropicalis 4912 = tested on: Candida tropicalis 4912
Candida albicans 4615 = tested on: Candida albicans 4615
[20] = tested on: Xanthomonas fragariae Xf349-9A
[21] = tested on: Erwinia amylovora PMV 6076
[22] = tested on: Pseudomonas aeruginosa 302
[23] = tested on: Candida parapsilosis ATCC 22019
Candida albicans = tested on: Candida albicans
Candida albicans 4762 = tested on: Candida albicans 4762
Candida albicans SC5314 = tested on: Candida albicans SC5314
Acinetobacter sp. 322 = tested on: Acinetobacter sp. 322
[24] = tested on: Klebsiella pneumoniae 202
[25] = tested on: Klebsiella pneumoniae 305
Escherichia coli 35 = tested on: Escherichia coli 35
[26] = tested on: Klebsiella pneumoniae 341
Candida tropicalis = tested on: Candida tropicalis
Acinetobacter sp. 312 = tested on: Acinetobacter sp. 312
[27] = tested on: Candida glabrata ATCC 15126
Candida krusei ATCC 6258 = tested on: Candida krusei ATCC 6258
[28] = tested on: Pseudomonas syringae pv. actinidiae Psa3700.1.1
Escherichia coli 225 = tested on: Escherichia coli 225
Candida tropicalis 4345 = tested on: Candida tropicalis 4345
[29] = tested on: Xanthomonas campestris pv. Vesicatoria 2133-2
[30] = tested on: Xanthomonas arboricola pv. pruni CFBP 5563
[31] = tested on: Candida tropicalis ATCC 13803
Acinetobacter sp. 301 = tested on: Acinetobacter sp. 301
Candida albicans 4748 = tested on: Candida albicans 4748
Escherichia coli 43 = tested on: Escherichia coli 43

- MIC (Enterococcus faecium): 28.3 µM (≈ 56.9 µg/mL)
- MIC [1]: 28.3 µM (≈ 56.9 µg/mL)
- MIC [2]: 20 µM (≈ 40.2 µg/mL)
- MIC [3]: ≥ 40 µM
- MIC (Pseudomonas aeruginosa): 28.3 µM (≈ 56.9 µg/mL)
- MIC (Escherichia coli): 28.3 µM (≈ 56.9 µg/mL)
- MIC [4]: 20 µM (≈ 40.2 µg/mL)
- MIC [5]: 28.3 µM (≈ 56.9 µg/mL)
- MIC [6]: 20 µM (≈ 40.2 µg/mL)
- MIC (Staphylococcus aureus): 14.1 µM (≈ 28.4 µg/mL)
- MIC [7]: ≥ 40 µM
Compound: CC(C)[C@H](NC(=O)[C@H](Cc1cnc[nH]1)NC(=O)[C@H](C)NC(=O)[C@H](C)NC(=O)[C@H](CCCCN)NC(=O)[C@H](CCCCN)NC(=O)[C@H](Cc1ccccc1)NC(=O)[C@H](Cc1ccccc1)NC(=O)[C@H](CO)NC(=O)CNC(=O)[C@H](Cc1c[nH]c2ccccc12)NC(=O)CN)C(=O)NCC(=O)N[C@@H](CCCCN)C(=O)N[C@@H](Cc1cnc[nH]1)C(=O)N[C@H](C(=O)NCC(=O)N[C@@H](CCCCN)C(=O)N[C@@H](C)C(N)=O)C(C)C [GWGSFFKKAAHVGKHVGKA]

- MIC (Corynebacterium xerosis): 0.547 µM (≈ 0.999 µg/mL)
- MIC [9]: 14.7 µM (≈ 26.9 µg/mL)
- MIC [10]: 0.547 µM (≈ 0.999 µg/mL)
- MIC (Enterococcus faecalis): 2 µM (≈ 3.66 µg/mL)
- MIC (Pseudomonas aeruginosa): > 100 µM
- MIC [11]: 1.09 µM (≈ 2 µg/mL)
- MIC (Escherichia coli): 4.37 µM (≈ 8 µg/mL)
- MIC (Salmonella typhimurium): ≥ 50 µM
- MIC [12]: 14.7 µM (≈ 26.9 µg/mL)
- MIC [13]: 0.547 µM (≈ 0.999 µg/mL)
- MIC (Acinetobacter baumannii): 5.6 µM (≈ 10.2 µg/mL)
- MIC [14]: ≥ 45 µM
- MIC [15]: 4.37 µM (≈ 8 µg/mL)
- MIC (Escherichia coli W160-37): 12.2 µM (≈ 22.3 µg/mL)
- MIC [16]: 6.7 µM (≈ 12.2 µg/mL)
- MIC (Klebsiella pneumoniae): 50 µM (≈ 91.4 µg/mL)
- MIC [17]: 2.19 µM (≈ 4 µg/mL)
- MIC [6]: 2.19 µM (≈ 4 µg/mL)
- MIC [18]: 1.55 µM (≈ 2.83 µg/mL)
Compound: CC[C@H](C)[C@H](N)C(=O)N[C@@H](CC(C)C)C(=O)N[C@@H](C)C(=O)N[C@@H](Cc1c[nH]c2ccccc12)C(=O)N[C@@H](CCCCN)C(=O)N[C@@H](Cc1c[nH]c2ccccc12)C(=O)N[C@@H](C)C(=O)N[C@@H](Cc1c[nH]c2ccccc12)C(=O)N[C@@H](Cc1c[nH]c2ccccc12)C(=O)N[C@@H](C)C(=O)N[C@@H](Cc1c[nH]c2ccccc12)C(=O)N[C@@H](CCCN=C(N)N)C(=O)N[C@@H](CCCN=C(N)N)C(N)=O [ILAWKWAWWAWRR]
- MIC [8]: 1.09 µM and 0.547 µM

- MIC (Staphylococcus aureus 1): 2.5 µM (≈ 3.13 µg/mL)
- MIC (Pseudomonas aeruginosa 2): 3.54 µM (≈ 4.43 µg/mL)
- MIC (Enterococcus faecium): 5 µM (≈ 6.26 µg/mL)
- MIC (Pseudomonas aeruginosa 5): 2.5 µM (≈ 3.13 µg/mL)
- MIC (Escherichia coli O157): 5 µM (≈ 6.26 µg/mL)
- MIC (Pseudomonas aeruginosa): 10 µM (≈ 12.5 µg/mL)
- MIC (Staphylococcus aureus 4): 5 µM (≈ 6.26 µg/mL)
- MIC (Pseudomonas aeruginosa 1): 5 µM (≈ 6.26 µg/mL)
- MIC (Staphylococcus aureus): 14.1 µM (≈ 17.7 µg/mL)
Compound: CC[C@H](C)[C@H](NC(=O)[C@H](CC(C)C)NC(=O)[C@H](CCCN=C(N)N)NC(=O)[C@@H](NC(=O)[C@H](C)NC(=O)[C@H](CCCCN)NC(=O)[C@H](CCCN=C(N)N)NC(=O)[C@H](CC(C)C)NC(=O)[C@@H](N)CCCN=C(N)N)C(C)C)C(=O)N[C@@H](CCCCN)C(=O)O [RLRKAVRLIK]

- MIC [19]: ≥ 50 µM
- MIC (Escherichia coli 207): 1.68 µM (≈ 2 µg/mL)
- MIC (Candida tropicalis 4912): 10.5 µM (≈ 12.5 µg/mL)
- MIC (Candida albicans 4615): ≥ 42 µM
- MIC [20]: ≥ 50 µM
- MIC [21]: ≥ 50 µM
- MIC [22]: 6.71 µM (≈ 8 µg/mL)
- MIC [23]: 5.25 µM (≈ 6.25 µg/mL)
- MIC (Candida albicans): 5.25 µM (≈ 6.25 µg/mL)
- MIC (Candida albicans 4762): ≥ 83.9 µM
- MIC (Candida albicans SC5314): 10.5 µM (≈ 12.5 µg/mL)
- MIC (Acinetobacter sp. 322): 3.36 µM (≈ 4 µg/mL)
- MIC [24]: 6.71 µM (≈ 8 µg/mL)
- MIC [25]: 3.36 µM (≈ 4 µg/mL)
- MIC (Escherichia coli 35): 6.71 µM (≈ 8 µg/mL)
- MIC [26]: 1.68 µM (≈ 2 µg/mL)
- MIC (Candida tropicalis): ≥ 83.9 µM
- MIC [12]: 0.839 µM (≈ 1 µg/mL)
- MIC (Acinetobacter sp. 312): 4.75 µM (≈ 5.66 µg/mL)
- MIC [27]: 21 µM (≈ 25 µg/mL)
- MIC (Candida krusei ATCC 6258): 21 µM (≈ 25 µg/mL)
- MIC [28]: ≥ 50 µM
- MIC (Escherichia coli 225): 0.839 µM (≈ 1 µg/mL)
- MIC (Candida tropicalis 4345): 21 µM (≈ 25 µg/mL)
- MIC [29]: ≥ 50 µM
- MIC [30]: ≥ 50 µM
- MIC [31]: 21 µM (≈ 25 µg/mL)
- MIC (Acinetobacter sp. 301): 2.37 µM (≈ 2.83 µg/mL)
- MIC (Candida albicans 4748): 21 µM (≈ 25 µg/mL)
- MIC (Escherichia coli 43): 3.36 µM (≈ 4 µg/mL)
Compound: CC(C)C[C@H](NC(=O)[C@H](CCC(N)=O)NC(=O)[C@H](CCCCN)NC(=O)[C@H](CCCN=C(N)N)NC(=O)[C@H](Cc1ccccc1)NC(=O)[C@@H](N)Cc1c[nH]c2ccccc12)C(=O)N[C@@H](CCCCN)C(=O)N[C@@H](Cc1c[nH]c2ccccc12)C(=O)O [WFRKQLKW]
